Measurements as given in PMC12191924, “A new naphthalene-based fluorogenic substrate for cytochrome P450 4A11” (Biochemical Journal, 2025).
Where “and” joins values, the source holds several entries; their conditions need not be identical. Identical values can stand only once.

Target: T1, CYP1A2 (Homo sapiens, UniProt P05177)
T1 sequence (P05177 2-516 limits assumed): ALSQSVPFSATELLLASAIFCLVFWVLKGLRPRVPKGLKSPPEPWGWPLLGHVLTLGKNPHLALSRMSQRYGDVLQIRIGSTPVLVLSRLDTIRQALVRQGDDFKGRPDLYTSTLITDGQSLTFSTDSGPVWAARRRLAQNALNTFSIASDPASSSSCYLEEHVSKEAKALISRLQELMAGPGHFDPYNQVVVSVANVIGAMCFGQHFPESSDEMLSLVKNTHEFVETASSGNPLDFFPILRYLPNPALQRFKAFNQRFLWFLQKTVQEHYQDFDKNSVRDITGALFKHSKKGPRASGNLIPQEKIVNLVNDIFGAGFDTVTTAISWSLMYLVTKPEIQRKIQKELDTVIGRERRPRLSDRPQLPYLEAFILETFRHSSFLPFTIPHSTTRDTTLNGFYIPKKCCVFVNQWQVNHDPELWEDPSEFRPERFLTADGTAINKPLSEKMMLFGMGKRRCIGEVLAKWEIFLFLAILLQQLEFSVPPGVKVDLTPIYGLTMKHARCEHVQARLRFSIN
Assay: MONACRA demethylation by recombinant CYP1A2 in Supersomes, high-throughput fluorimetric assay
Type: biochemical
Set-up: purchased Gentest (Supersomes), now a part of Discovery Life Sciences; CYP1A2 is not in the lot list; host or cells: insect cells, recombinant baculovirus
Protocol: Based on these observations, we developed a high-throughput automated assay applicable for studying SSPs of MONACRA metabolism by microsomal P450 enzymes. In this procedure, the incubation mixtures containing an NADPH-generating system and various substrate concentrations are placed in a multiwell plate and preincubated at 30°C in a thermostated shaker. The reaction is started by adding microsomal suspension to the final concentration of 0.3–1 mg/ml of microsomal protein or 0.02–0.1 µM of recombinant P450 enzymes in Supersomes. Following the incubation for 20 min at 30°C, the reaction is quenched by adding trichloroacetic acid (final concentration […]). After supplementing the wells with Na-glycine buffer (pH 10.4, final concentration 2.1 M), the plates are subjected to scanning the fluorescence spectra with excitation at 375 nm. This assay, which is described in detail in Materials and Methods, allows reliable detection of the concentrations of HONACRA as low as 0.1 µM.
We used the high-throughput activity assay described above to probe MONACRA metabolism by 16 human microsomal P450 enzymes, namely CYP1A2, CYP2A6, CYP2B6, CYP2C8, CYP2C9, CYP2C19, CYP2D6, CYP2E1, CYP2J2, CYP3A4, CYP3A5, CYP4A11, CYP4F2, CYP4F3A, CYP4F3B, and CYP4F12. […]

Vmax (substrate inhibition equation): 43.7 ± 5.9 min⁻¹
Ksi (substrate inhibition constant) (substrate inhibition equation (eqn 2)): 650 ± 200 µM and 648 ± 197 µM
SMILES: COc1ccc2cc(C=CC(=O)O)ccc2c1 [MONACRA, 3-(6-methoxynaphthalen-2-yl)acrylic acid]
